According to ChEMBL document CHEMBL2440076, “New triarylpyrazoles as broad-spectrum anticancer agents: design, synthesis, and biological evaluation” (Eur J Med Chem, 2013):

Experiments:
Assay type in all cases: functional
[1] = system: SF-268; experiment: Growth inhibition of human SF268 cells assessed as cell growth at 5X10'-6 M after 48 hrs by sulforhodamine B assay; details: SF-268, 48 h, read-out: Activity
[2] = Growth inhibition of human NCI-ADR-RES cells assessed as cell growth at 5X10'-9 M after 48 hrs by sulforhodamine B assay; details: read-out: Activity
[3] = system: LOX IMVI; experiment: Growth inhibition of human LOXIMVI cells assessed as cell growth at 5X10'-8 M after 48 hrs by sulforhodamine B assay; details: read-out: Activity
[4] = system: HT-29; experiment: Growth inhibition of human HT-29 cells assessed as cell growth at 5X10'-9 M after 48 hrs by sulforhodamine B assay; details: HT-29, 48 h, read-out: Activity
[5] = system: 786-0; experiment: Growth inhibition of human 786-0 cells assessed as cell growth at 5X10'-7 M after 48 hrs by sulforhodamine B assay; details: 786-0, 48 h, read-out: Activity
[6] = system: SN12C; experiment: Growth inhibition of human SN12C cells assessed as cell growth at 5X10'-5 M after 48 hrs by sulforhodamine B assay; details: read-out: Activity
[7] = system: BT-549; experiment: Growth inhibition of human BT549 cells assessed as cell growth at 5X10'-9 M after 48 hrs by sulforhodamine B assay; details: BT-549, 48 h, read-out: Activity
[8] = system: SF-539; experiment: Growth inhibition of human SF539 cells assessed as cell growth at 5X10'-9 M after 48 hrs by sulforhodamine B assay; details: SF-539, 48 h, read-out: Activity
[9] = system: UACC-257; experiment: Growth inhibition of human UACC257 cells assessed as cell growth at 5X10'-7 M after 48 hrs by sulforhodamine B assay; details: UACC-257, 48 h, read-out: Activity
[10] = system: HCT-116; experiment: Growth inhibition of human HCT116 cells assessed as cell growth at 5X10'-9 M after 48 hrs by sulforhodamine B assay; details: HCT-116, 48 h, read-out: Activity
[11] = system: SNB-19; experiment: Growth inhibition of human SNB19 cells assessed as cell growth at 5X10'-6 M after 48 hrs by sulforhodamine B assay; details: SNB-19, 48 h, read-out: Activity
[12] = system: SNB-75; experiment: Growth inhibition of human SNB75 cells assessed as cell growth at 5X10'-8 M after 48 hrs by sulforhodamine B assay; details: SNB-75, 48 h, read-out: Activity
[13] = system: SK-MEL-28; experiment: Growth inhibition of human SK-MEL-28 cells assessed as cell growth at 5X10'-5 M after 48 hrs by sulforhodamine B assay; details: SK-MEL-28, 48 h, read-out: Activity
[14] = system: HOP-92; experiment: Growth inhibition of human HOP92 cells assessed as cell growth at 5X10'-9 M after 48 hrs by sulforhodamine B assay; details: HOP-92, 48 h, read-out: Activity
[15] = Growth inhibition of human Hs 578T cells assessed as cell growth at 5X10'-6 M after 48 hrs by sulforhodamine B assay; details: read-out: Activity
[16] = system: RXF 393; experiment: Growth inhibition of human RXF393 cells assessed as cell growth at 5X10'-6 M after 48 hrs by sulforhodamine B assay; details: RXF 393, 48 h, read-out: Activity
[17] = system: TK-10; experiment: Growth inhibition of human TK10 cells assessed as cell growth at 5X10'-7 M after 48 hrs by sulforhodamine B assay; details: TK-10, 48 h, read-out: Activity
[18] = system: OVCAR-4; experiment: Growth inhibition of human OVCAR4 cells assessed as cell growth at 5X10'-5 M after 48 hrs by sulforhodamine B assay; details: OVCAR-4, 48 h, read-out: Activity
[19] = system: IGROV-1; experiment: Growth inhibition of human IGROV1 cells assessed as cell growth at 5X10'-6 M after 48 hrs by sulforhodamine B assay; details: IGROV-1, 48 h, read-out: Activity
[20] = system: SK-OV-3; experiment: Growth inhibition of human SKOV3 cells assessed as cell growth at 5X10'-7 M after 48 hrs by sulforhodamine B assay; details: SK-OV-3, 48 h, read-out: Activity
[21] = system: SN12C; experiment: Growth inhibition of human SN12C cells assessed as cell growth at 5X10'-8 M after 48 hrs by sulforhodamine B assay; details: read-out: Activity
[22] = system: SK-MEL-5; experiment: Growth inhibition of human SK-MEL-5 cells assessed as cell growth at 5X10'-9 M after 48 hrs by sulforhodamine B assay; details: SK-MEL-5, 48 h, read-out: Activity
[23] = system: NCI-H460; experiment: Growth inhibition of human NCI-H460 cells assessed as cell growth at 5X10'-5 M after 48 hrs by sulforhodamine B assay; details: NCI-H460, 48 h, read-out: Activity
[24] = system: OVCAR-8; experiment: Growth inhibition of human OVCAR8 cells assessed as cell growth at 5X10'-9 M after 48 hrs by sulforhodamine B assay; details: OVCAR-8, 48 h, read-out: Activity
[25] = system: SR; experiment: Growth inhibition of human SR cells assessed as cell growth at 5X10'-5 M after 48 hrs by sulforhodamine B assay; details: read-out: Activity
[26] = system: NCI-H226; experiment: Growth inhibition of human NCI-H226 cells assessed as cell growth at 5X10'-6 M after 48 hrs by sulforhodamine B assay; details: NCI-H226, 48 h, read-out: Activity
[27] = system: MDA-MB-468; experiment: Growth inhibition of human MDA-MB-468 cells assessed as cell growth at 5X10'-5 M after 48 hrs by sulforhodamine B assay; details: MDA-MB-468, 48 h, read-out: Activity
[28] = system: HL-60(TB); experiment: Growth inhibition of human HL-60(TB) cells assessed as cell growth at 5X10'-9 M after 48 hrs by sulforhodamine B assay; details: HL-60, 48 h, read-out: Activity
[29] = Growth inhibition of human Hs 578T cells assessed as cell growth at 5X10'-9 M after 48 hrs by sulforhodamine B assay; details: read-out: Activity
[30] = system: UACC-257; experiment: Growth inhibition of human UACC257 cells assessed as cell growth at 5X10'-9 M after 48 hrs by sulforhodamine B assay; details: UACC-257, 48 h, read-out: Activity
[31] = system: UACC-62; experiment: Growth inhibition of human UACC62 cells assessed as cell growth at 5X10'-8 M after 48 hrs by sulforhodamine B assay; details: UACC-62, 48 h, read-out: Activity
[32] = system: SK-OV-3; experiment: Growth inhibition of human SKOV3 cells assessed as cell growth at 5X10'-5 M after 48 hrs by sulforhodamine B assay; details: SK-OV-3, 48 h, read-out: Activity
[33] = system: CCRF-CEM; experiment: Growth inhibition of human CCRF-CEM cells assessed as cell growth at 5X10'-5 M after 48 hrs by sulforhodamine B assay; details: read-out: Activity
[34] = system: Malme-3M; experiment: Growth inhibition of human MALME-3M cells assessed as cell growth at 5X10'-8 M after 48 hrs by sulforhodamine B assay; details: read-out: Activity
[35] = system: IGROV-1; experiment: Growth inhibition of human IGROV1 cells assessed as cell growth at 5X10'-7 M after 48 hrs by sulforhodamine B assay; details: IGROV-1, 48 h, read-out: Activity
[36] = Growth inhibition of human NCI-ADR-RES cells assessed as cell growth at 5X10'-7 M after 48 hrs by sulforhodamine B assay; details: read-out: Activity
[37] = system: HL-60(TB); experiment: Growth inhibition of human HL-60(TB) cells assessed as cell growth at 5X10'-5 M after 48 hrs by sulforhodamine B assay; details: HL-60, 48 h, read-out: Activity

Row | Structure (SMILES) | growth at 5 µM [1] [%] | growth at 0.005 µM [2] [%] | growth at 0.05 µM [3] [%] | growth at 0.005 µM [4] [%] | growth at 0.5 µM [5] [%] | growth at 50 µM [6] [%] | growth at 0.005 µM [7] [%] | growth at 0.005 µM [8] [%] | growth at 0.5 µM [9] [%] | growth at 0.005 µM [10] [%] | growth at 5 µM [11] [%] | growth at 0.05 µM [12] [%] | growth at 50 µM [13] [%] | growth at 0.005 µM [14] [%] | growth at 5 µM [15] [%] | growth at 5 µM [16] [%] | growth at 0.5 µM [17] [%] | growth at 50 µM [18] [%] | growth at 5 µM [19] [%] | growth at 0.5 µM [20] [%] | also measured
1 | COc1cc(-c2nn(-c3cccc(NC(=O)Nc4cccc(C(F)(F)F)c4)c3)cc2-c2ccncc2)ccc1Cl | 1 | 99 | 95 | 99 | 91 | -7 | 98 | 95 | 83 | 101 | -8 | 95 | -69 | 93 | 4 | -52 | 79 | -3 | -22 | 102 | growth at 0.05 µM [21]: 97%; growth at 0.005 µM [22]: 99%; growth at 50 µM [23]: -35%; growth at 0.005 µM [24]: 99%; growth at 50 µM [25]: -16%; growth at 5 µM [26]: 7%; growth at 50 µM [27]: -44%; growth at 0.005 µM [28]: 90%; growth at 0.005 µM [29]: 96%; growth at 0.005 µM [30]: 96%; growth at 0.05 µM [31]: 94%; growth at 50 µM [32]: 2%; growth at 50 µM [33]: 3%; growth at 0.05 µM [34]: 87%; growth at 0.5 µM [35]: 85%; growth at 0.5 µM [36]: 65%; growth at 50 µM [37]: 5%
2 | COc1cc(-c2nn(-c3cccc(NC(=O)Nc4cc(C(F)(F)F)cc(C(F)(F)F)c4)c3)cc2-c2ccncc2)ccc1Cl | -40 | 105 | 105 | 110 | 92 | -45 | 103 | 88 | 82 | 101 | -9 | 90 | -87 | 77 | -12 | -51 | 78 | -21 | -42 | 95 | growth at 0.05 µM [21]: 91%; growth at 0.005 µM [22]: 99%; growth at 50 µM [23]: -59%; growth at 0.005 µM [24]: 101%; growth at 50 µM [25]: -5%; growth at 5 µM [26]: 7%; growth at 50 µM [27]: -53%; growth at 0.005 µM [28]: 100%; growth at 0.005 µM [29]: 96%; growth at 0.005 µM [30]: 94%; growth at 0.05 µM [31]: 93%; growth at 50 µM [32]: -62%; growth at 50 µM [33]: -8%; growth at 0.05 µM [34]: 104%; growth at 0.5 µM [35]: 76%; growth at 0.5 µM [36]: 72%; growth at 50 µM [37]: 6%
